Data on 24 compounds can be found in ChEMBL document CHEMBL1201862, “PubChem BioAssay data set” (2004).

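Step 1: Grow cells in 96-well plates. Step 2: Expose to compound for 48 hours at 5 concentrations. Step 3: Interpolate endpoints linearly; if unreached, use highest concentration. At the GI50, growth is halved.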 The source made the active and inactive calls. Cut-off read from the data, not from the text of the source: active = GI50 up to about 1.1 µM and inactive = higher.

Test systems include DMS-273; HOP-18; DMS-114; SNB-78; M19-MEL; DLD-1; XF498; LXFL 529; RXF 631.
Assay in all cases: inhibition of tumour cell growth, NCI panel, 48 h

Take `CC(C)(C)N1CC2(CCCCC2)C1=O`: the GI50 in the assay on DMS-273, in the assay on HOP-18, in the assay with DMS-114, in the assay with SNB-78, in the assay with M19-MEL and in the assay on DLD-1 was > 100 µM (inactive) in each case.
For the compound `COc1ccc2nccc(C3OC(=O)N4CCC(=O)CC34)c2c1` (centres undefined), the GI50 with DMS-273 was > 10 µM (inactive); with XF498, > 100 µM (inactive); in the assay with LXFL 529 it was > 100 µM (inactive); with SNB-78, > 100 µM (inactive); in the assay on M19-MEL, > 100 µM (inactive); in the assay with RXF 631, > 100 µM (inactive).
Regarding `CC(=O)O[C@H]1CC[C@@]2(C)C(CC[C@]3(C)C2CC[C@]2(C)Oc4c(C)cc(O)cc4C[C@@H]23)C1(C)C` (some centres undefined), the GI50 in the assay on DMS-273 was 3.65 µM (inactive); in the assay with HOP-18, 13.5 µM (inactive); in the assay with LXFL 529 it was 3.65 µM (inactive); in the assay on DMS-114 it was 7.1 µM (inactive); with SNB-78 it was 7.52 µM (inactive); in the assay with M19-MEL, 11.9 µM (inactive). The GI50 was 5.16 µM (inactive) with RXF 631 and 10.4 µM (inactive) with DLD-1.
Turning to `CCCC(=O)OC1C(C(O)CO)OC2OC(C)(C)OC21` (centres undefined), the GI50 with DMS-273, in the assay on XF498, in the assay with HOP-18, in the assay with DMS-114, in the assay with SNB-78 and with M19-MEL was > 100 µM (inactive) in each case. Further, the GI50 with DLD-1 was > 100 µM (inactive).
For `CN1CCN2c3ccccc3CC(C#N)(C#N)C2C1` (centres undefined), the GI50 with DMS-273, in the assay on HOP-18, in the assay with LXFL 529, in the assay on DMS-114, in the assay on SNB-78 and in the assay with M19-MEL was > 100 µM (inactive) in each case. Moreover, the GI50 in the assay on RXF 631 and in the assay on DLD-1 was > 100 µM (inactive) each time.
As to `CCOC(=O)C1S/C(=N\c2ccc(OC)c(OC)c2)N=C1C` (centres undefined), the GI50 in the assay with DMS-273 is 38.4 µM (inactive); in the assay with XF498, 29.2 µM (inactive); with HOP-18, > 100 µM (inactive); in the assay on LXFL 529, 33.3 µM (inactive); in the assay with DMS-114 it was 28.5 µM (inactive); in the assay on SNB-78, 48.5 µM (inactive). Moreover, the values for the GI50 in the assay with RXF 631 and with DLD-1 were 47.6 µM (inactive) and 31.4 µM (inactive), respectively.
Consider `CC12CC(Sc3ccccc3N1)c1ccccc1O2` (centres undefined), for which the GI50 is 16.3 µM (inactive) with DMS-273; 16.3 µM (inactive) in the assay with XF498; 14.1 µM (inactive) in the assay on HOP-18; 15.2 µM (inactive) in the assay on LXFL 529; 15.6 µM (inactive) in the assay on DMS-114; 16.5 µM (inactive) in the assay with SNB-78. The GI50 in the assay with M19-MEL is 16.7 µM (inactive); with RXF 631, 15.1 µM (inactive); with DLD-1, 15.2 µM (inactive).
In the case of `O=C1Nc2ccccc2C12CCCC2`, the GI50 in the assay with DMS-273, in the assay with XF498, in the assay on HOP-18, in the assay on LXFL 529, in the assay on DMS-114 and in the assay on SNB-78 was > 100 µM (inactive) throughout. The GI50 in the assay on M19-MEL and in the assay with DLD-1 was > 100 µM (inactive) in each case.
Turning to `O=C(O)COc1ccc2c3c1C(=O)CCC3CO2` (centres undefined), the GI50 in the assay with DMS-273, with XF498, in the assay on HOP-18, with LXFL 529, in the assay with DMS-114 and in the assay on SNB-78 was > 100 µM (inactive) in each case. Moreover, the GI50 with M19-MEL and in the assay with DLD-1 was > 100 µM (inactive) in each case.
For the compound `CC[P+](C)(C)CC`, the GI50 in the assay with DMS-273, in the assay with HOP-18, with LXFL 529, with DMS-114, with SNB-78 and with M19-MEL was > 100 µM (inactive) each time. The GI50 with RXF 631 and in the assay on DLD-1 was > 100 µM (inactive) in each case.
On to `COc1c(C)c2c(c(C)c1Cl)Oc1c(C=O)c(O)c(Cl)c(C)c1C(=O)O2`, for which the GI50 is 22.4 µM (inactive) in the assay with DMS-273; 2.66 µM (inactive) in the assay on XF498; 28.1 µM (inactive) with LXFL 529; 23.3 µM (inactive) in the assay with DMS-114; 18.2 µM (inactive) with SNB-78; 31.3 µM (inactive) in the assay with M19-MEL. Moreover, in the assay with DLD-1, the GI50 is 27.7 µM (inactive).
Consider `Cn1c2c(c3ccccc31)CCN(CCCCN1CCc3c(n(C)c4ccccc34)C1=O)C2`, for which the GI50 in the assay with DMS-273 is > 100 µM (inactive); in the assay on XF498, > 100 µM (inactive); with HOP-18, > 100 µM (inactive); with LXFL 529 it was > 100 µM (inactive); with DMS-114, 73.1 µM (inactive); in the assay with SNB-78, > 100 µM (inactive). Besides, the GI50 in the assay on M19-MEL, in the assay on RXF 631 and with DLD-1 was > 100 µM (inactive) each time.
As for `O=C1/C=C(/c2ccc(O)cc2)[C@@H](OC2OC(CO)C(O)C(O)C2O)Cc2ccc(O)cc2O1.O=C1/C=C(/c2ccc(O)cc2)[C@H](O)Cc2ccc(O[C@@H]3OC(CO)C(O)C(O)C3O)cc2O1` (some centres undefined), the GI50 with LXFL 529, with DMS-114, in the assay with SNB-78, with M19-MEL, with RXF 631 and in the assay on DLD-1 was > 100 µM (inactive) in each case.
With `O=C(O)/C(=C/c1ccccc1[N+](=O)[O-])c1cccs1`, the GI50 with DMS-273, in the assay on XF498, with HOP-18, in the assay on LXFL 529, with SNB-78 and with M19-MEL was > 100 µM (inactive) in each case. Moreover, the GI50 in the assay with RXF 631 and in the assay on DLD-1 was > 100 µM (inactive) throughout.
Consider `C=C1C(=O)O[C@H](c2ccoc2)C[C@@H]1[C@@]1(C)CCCC2(C)C(=O)OCC21` (some centres undefined), for which the GI50 in the assay on DMS-273, with XF498, in the assay on LXFL 529, with DMS-114, in the assay with SNB-78 and in the assay on M19-MEL was > 100 µM (inactive) throughout.
In the case of `CC1=C(C(=O)Nc2ccccc2C)C(/C=C/c2ccccc2)C(C(=O)Nc2ccccc2C)=C(C)N1`, the GI50 with DMS-273, with XF498, with HOP-18, in the assay with LXFL 529, in the assay on SNB-78 and in the assay on M19-MEL was > 100 µM (inactive) in each case. For the same compound, the GI50 in the assay with RXF 631 and in the assay with DLD-1 was > 100 µM (inactive) each time.
On to `C=C1CC2OC2(C(=O)O[C@H]2CCC3[C@@H]4CCC5=CC(=O)CC[C@]5(C)C4CC[C@@]32C)C1=O` (some centres undefined), for which the GI50 was 4.45 µM (inactive) in the assay with DMS-273; 5.19 µM (inactive) in the assay with XF498; 5.83 µM (inactive) with HOP-18; 2.18 µM (inactive) with LXFL 529; 5.2 µM (inactive) in the assay with DMS-114; 8.26 µM (inactive) with SNB-78. Further, the GI50 in the assay with M19-MEL was 7.57 µM (inactive); in the assay with DLD-1, 2.64 µM (inactive).
Regarding `C[C@H](NC(=O)n1c2ccccc2c2ccccc21)C(=O)O`, the GI50 in the assay with DMS-273, in the assay with HOP-18, in the assay on LXFL 529, in the assay with DMS-114, with M19-MEL and with RXF 631 was > 100 µM (inactive) each time. For the same compound, the GI50 with DLD-1 was > 100 µM (inactive).
With `CCOC(=O)C(=O)Nc1ccccc1C(F)(F)F`, the GI50 was > 100 µM (inactive) with DMS-273; > 100 µM (inactive) with XF498; 0.9 µM (active) in the assay with HOP-18; > 100 µM (inactive) with LXFL 529; > 100 µM (inactive) with SNB-78; > 100 µM (inactive) with DLD-1.
Regarding `O=C(C(=O)c1ccc(Cc2ccc(C(=O)C(=O)c3ccccc3)cc2)cc1)c1ccccc1`, the GI50 with DMS-273, with HOP-18, in the assay on LXFL 529, with DMS-114, in the assay with SNB-78 and in the assay with M19-MEL was > 100 µM (inactive) each time. Also, the GI50 with RXF 631 and in the assay on DLD-1 was > 100 µM (inactive) throughout.
As for `O=C1C=CC(=O)c2c1c1c(c3c2C2c4ccccc4C3c3ccccc32)C2c3ccccc3C1c1ccccc12`, the GI50 with DMS-273 was 2.11 µM (inactive); with XF498, 1.75 µM (inactive); in the assay on LXFL 529 it was 1.08 µM (active); with DMS-114, 1.95 µM (inactive); in the assay on SNB-78, 1.81 µM (inactive); with M19-MEL, 1.98 µM (inactive). Further, the GI50 with DLD-1 was 0.982 µM (active).
Regarding `O=C(/C=C\c1ccc(Cl)c(Cl)c1)c1ccc(Cl)cc1Cl`, the GI50 in the assay with DMS-273 was 10.4 µM (inactive); in the assay on HOP-18, > 10 µM (inactive); with LXFL 529 it was 2.26 µM (inactive); with DMS-114, > 10 µM (inactive); with SNB-78, > 10 µM (inactive); in the assay on M19-MEL it was 18.7 µM (inactive). Also, the GI50 is 35.9 µM (inactive) in the assay with RXF 631 and 5.41 µM (inactive) in the assay on DLD-1.
In the case of `Cc1cn(C2CC(O)C(CO)O2)c(=O)n2nnnc12` (centres undefined), the GI50 in the assay with DMS-273, in the assay on HOP-18, in the assay on LXFL 529, with DMS-114, in the assay with SNB-78 and in the assay on M19-MEL was > 100 µM (inactive) each time. The GI50 with RXF 631 and in the assay on DLD-1 was > 100 µM (inactive) throughout.
For the compound `O=C(O)[C@@H](NS(=O)(=O)c1ccc([N+](=O)[O-])cc1)c1ccccc1`, the GI50 with DMS-273, in the assay on XF498, with HOP-18, in the assay on LXFL 529, with M19-MEL and in the assay on RXF 631 was > 100 µM (inactive) in each case. Besides, the GI50 in the assay with DLD-1 was > 100 µM (inactive).
